Laboratory results as given in paper PMC3979932 (Xenobiotica; the fate of foreign compounds in biological …, 2013).
Where two headings read alike, the source gives them in different places.

How the values were obtained:
[1] = target: T1, CYP2E1 in human liver microsomes (HLM150) (Homo sapiens, UniProt P05181)
[2] = target: T2, CYP2E1 (Homo sapiens, UniProt P05181); assay: in vitro; settings: recombinant enzyme, pH 7.4
[3] = target: T2, CYP2E1
[4] = target: T2, CYP2E1; assay: in vitro; settings: microsomes, pH 7.4
[5] = target: T3, CYP2E1 activity with HLM150 (Homo sapiens, UniProt P05181); assay: Steady-state inhibition kinetics of 4-nitrophenol oxidation, HLM150
T3 sequence (P05181 whole entry): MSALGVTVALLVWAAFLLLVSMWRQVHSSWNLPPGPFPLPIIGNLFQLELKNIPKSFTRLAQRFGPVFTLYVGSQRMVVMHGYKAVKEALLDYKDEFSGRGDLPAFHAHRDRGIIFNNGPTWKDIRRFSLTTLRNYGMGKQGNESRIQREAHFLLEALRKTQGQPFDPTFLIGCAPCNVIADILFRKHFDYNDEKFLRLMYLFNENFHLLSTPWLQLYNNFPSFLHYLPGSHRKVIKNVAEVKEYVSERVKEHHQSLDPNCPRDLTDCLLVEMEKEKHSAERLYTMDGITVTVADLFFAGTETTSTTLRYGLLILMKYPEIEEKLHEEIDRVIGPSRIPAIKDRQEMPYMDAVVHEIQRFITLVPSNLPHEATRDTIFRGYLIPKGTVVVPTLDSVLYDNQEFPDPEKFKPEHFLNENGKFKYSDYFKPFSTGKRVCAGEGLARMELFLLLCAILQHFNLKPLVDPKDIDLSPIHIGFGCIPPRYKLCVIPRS

[6] = target: T2, CYP2E1; assay: Steady-state inhibition kinetics of 4-nitrophenol oxidation, CYP2E1 Supersomes; settings: for Ki: Ki,ap, apparent, catalytic site, 95% CI in parentheses; for Mechanism: most probable inhibition mechanism among 10 models
[7] = target: T2, CYP2E1; settings: human, microsomes, pH 7.4
[8] = target: T2, CYP2E1; settings: human, recombinant enzyme, pH 7.4
[9] = target: T4, human CYP2E1 (Supersomes) (Homo sapiens, UniProt P05181)
T4 sequence (P05181 whole entry): as above

[10] = tested on: CYP2E1; settings: CYP2E1 Supersomes; ref Hartman et al., 2012; cited from earlier work
[11] = target: T4, human CYP2E1 (Supersomes); settings: recombinant enzyme, pH 7.4
[12] = target: T3, CYP2E1 activity with HLM150
[13] = target: T1, CYP2E1 in human liver microsomes (HLM150); settings: pH 7.4

T2 sequence (P05181 whole entry): as above
T1 sequence (P05181 whole entry): as above

Row | IC50 at 30 min [2] | activity at 30 min [2] | Mechanism [3] | activity at 30 min [4] | IC50 [11] | Ki,ap [12] | Mechanism [12] | Ki,ap ([3]; recombinant enzyme) | IC50 [13] | SMILES | IC50 [1] | Ki [5] | Ki [6] | activity at 30 min [7] | activity at 30 min [8] | IC50 [9] | Ks (high affinity apparent binding constant during styrene metabolism) [10] | Ki ([5]; Ki,ap, HLM150, apparent, catalytic site, 95% CI in parentheses) | Ki ([5]; Ksi,ap, HLM150, apparent, cooperative site, 95% CI in parentheses) | Mechanism [6]
1 | 24 µM | 16% | Mixed cooperative substrate | 19% |  |  |  |  |  | C=Cc1ccc(O)cc1 [4-Vinylphenol, 4-vinylphenol] | 38 µM | 61 µM | 47 µM |  |  |  |  |  |  | 
2 |  |  |  |  |  |  |  |  |  | C=Cc1ccccc1 [Styrene, styrene] | 45 µM |  | 67 µM | 20% | 11% | 75 µM | 110 µM | 18 µM | 58 µM | Mixed cooperative substrate
3 |  | 9.2% | Competitive | 18% | 13 000 (2800–23 000) μM | 17 000 (15 000–19 000) μM | Competitive | 29 000 (19 000–52 000) μM | 14 000 (6600–21 000) μM | OCC(O)c1ccccc1 (racemic) [R/S-Styrene glycol, (R/S)-1,2-phenylethanediol] |  |  |  |  |  |  |  |  |  | 
4 |  |  |  |  |  |  |  |  |  | c1ccc(C2CO2)cc1 (stereo not shown) [Styrene oxide, 8,9-styrene oxide] | 150 µM | 160 µM | 110 µM | 28% | 13% | 55 µM |  |  |  | Mixed cooperative substrate
